Source: ChEMBL document CHEMBL1201862, “PubChem BioAssay data set” (2004)
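A five-concentration, 48-hour dose response in 96-well plates underlies each endpoint, interpolated linearly between surrounding concentrations. Here, GI50 denotes the concentration required for 50% inhibition of growth.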 The source made the active and inactive calls. Rule as the data show it: active = GI50 up to about 1.1 µM and inactive = higher.

Experiments:
Assay in all cases: NCI-60 cell line screen, 48 h
U-251 = tested on: U-251
SK-OV-3 = tested on: SK-OV-3
KM12 = tested on: KM12
OVCAR-3 = tested on: OVCAR-3
COLO 205 = tested on: COLO 205
ACHN = tested on: ACHN
DU-145 = tested on: DU-145
A549 = tested on: A549
T47D = tested on: T47D
SW-620 = tested on: SW-620
NCI-H522 = tested on: NCI-H522
NCI-H460 = tested on: NCI-H460
M14 = tested on: M14
SK-MEL-5 = tested on: SK-MEL-5
OVCAR-4 = tested on: OVCAR-4
NCI/ADR-RES = tested on: NCI/ADR-RES
SN12C = tested on: SN12C
OVCAR-8 = tested on: OVCAR-8
RXF 393 = tested on: RXF 393
MDA-MB-435 = tested on: MDA-MB-435
NCI-H23 = tested on: NCI-H23
HT-29 = tested on: HT-29
RPMI-8226 = tested on: RPMI-8226
HCC 2998 = tested on: HCC 2998
SK-MEL-2 = tested on: SK-MEL-2
786-0 = tested on: 786-0
SF-295 = tested on: SF-295
OVCAR-5 = tested on: OVCAR-5
SF-268 = tested on: SF-268
SF-539 = tested on: SF-539
HCT-116 = tested on: HCT-116
Hs-578T = tested on: Hs-578T
HCT-15 = tested on: HCT-15
HOP-92 = tested on: HOP-92
Malme-3M = tested on: Malme-3M
SR = tested on: SR
SK-MEL-28 = tested on: SK-MEL-28
LOX IMVI = tested on: LOX IMVI
NCI-H226 = tested on: NCI-H226
HOP-62 = tested on: HOP-62
MDA-N = tested on: MDA-N
CAKI-1 = tested on: CAKI-1
BT-549 = tested on: BT-549
MCF7 = tested on: MCF7
SNB-75 = tested on: SNB-75
IGROV-1 = tested on: IGROV-1
MDA-MB-231 = tested on: MDA-MB-231
A498 = tested on: A498
CCRF-CEM = tested on: CCRF-CEM
MOLT-4 = tested on: MOLT-4
K562 = tested on: K562
HL-60 = tested on: HL-60
UO-31 = tested on: UO-31
EKVX = tested on: EKVX
UACC-62 = tested on: UACC-62
SNB-19 = tested on: SNB-19
UACC-257 = tested on: UACC-257
TK-10 = tested on: TK-10
PC-3 = tested on: PC-3

Measured: GI50

O=C(Nc1ccccc1)N1CCNC1=S
> 100 µM: HCT-15
inactive: U-251 > 100 µM | SK-OV-3 > 100 µM | KM12 > 100 µM | OVCAR-3 > 100 µM | COLO 205 > 100 µM | ACHN > 100 µM | DU-145 > 100 µM | A549 > 100 µM | T47D 60.1 µM | SW-620 > 100 µM | NCI-H522 > 100 µM | NCI-H460 57.9 µM | M14 > 100 µM | SK-MEL-5 > 100 µM | OVCAR-4 71.6 µM | NCI/ADR-RES > 100 µM | SN12C > 100 µM | OVCAR-8 > 100 µM | RXF 393 26.5 µM | MDA-MB-435 > 100 µM | NCI-H23 > 100 µM | HT-29 > 100 µM | RPMI-8226 > 100 µM | HCC 2998 15.5 µM | SK-MEL-2 > 100 µM | 786-0 > 100 µM | SF-295 > 100 µM | OVCAR-5 > 100 µM | SF-268 > 100 µM | SF-539 > 100 µM | HCT-116 > 100 µM | Hs-578T 48 µM | HOP-92 > 100 µM | Malme-3M > 100 µM | SR 69.2 µM | SK-MEL-28 > 100 µM | LOX IMVI > 100 µM | NCI-H226 87.5 µM | HOP-62 > 100 µM | MDA-N > 100 µM | CAKI-1 > 100 µM | BT-549 65.5 µM | MCF7 > 100 µM | SNB-75 28.4 µM | IGROV-1 > 100 µM | MDA-MB-231 > 100 µM | A498 > 100 µM | CCRF-CEM > 100 µM | MOLT-4 > 100 µM | K562 > 100 µM | HL-60 > 100 µM | UO-31 57.3 µM | EKVX 53 µM | UACC-62 > 100 µM

CC(=O)OCCCCN1C(=O)CSc2ccccc21
inactive: U-251 > 100 µM | SK-OV-3 > 100 µM | KM12 > 100 µM | OVCAR-3 > 100 µM | ACHN > 100 µM | DU-145 > 100 µM | SNB-19 > 100 µM | A549 > 100 µM | T47D > 100 µM | SW-620 > 100 µM | NCI-H522 > 100 µM | NCI-H460 > 100 µM | SK-MEL-5 66.5 µM | OVCAR-4 > 100 µM | SN12C > 100 µM | UACC-257 > 100 µM | RXF 393 > 100 µM | MDA-MB-435 > 100 µM | RPMI-8226 > 100 µM | SK-MEL-2 > 100 µM | 786-0 > 10 µM | SF-295 > 100 µM | OVCAR-5 > 100 µM | SF-539 > 100 µM | HCT-116 > 100 µM | Hs-578T > 100 µM | HOP-92 > 100 µM | SR > 100 µM | SK-MEL-28 > 100 µM | LOX IMVI > 100 µM | HOP-62 > 100 µM | MDA-N > 100 µM | CAKI-1 > 100 µM | BT-549 4.2 µM | TK-10 > 100 µM | MCF7 > 100 µM | SNB-75 > 100 µM | IGROV-1 > 100 µM | A498 > 100 µM | PC-3 > 100 µM | CCRF-CEM > 100 µM | MOLT-4 > 100 µM | HL-60 > 100 µM | UO-31 76.7 µM | EKVX > 100 µM | UACC-62 > 100 µM
> 100 µM: HCT-15
